Results as given in patent US20100069319A1, “Mercaptopurine derivatives and uses thereof” (priority 2007, published 2010).

Legend:
B-CLL cells [1] = experiment: Cell death by trypan blue dye exclusion / PI; type: cell-based, human; settings: 16 h
Method: (§1) Cell death was monitored by trypan blue dye exclusion test or propidium iodide (PI) incorporation. Treated cells were incubated with PI (2 μg/ml) for 20 min at 37° C., washed with HBS and examined by fluorescence microscopy or analyzed by flow cytometry using fluorescence-activated cell sorting (Becton Dickinson FACScan Instrument using CellQuest software (BD Bioscience, San Jose, Calif.). Monolayer cells were trypsinized and washed with HBS before FACS analysis.
(§2) In parallel, the trypan blue dye exclusion test was used to assess cell death. In particular, different concentrations of 6MP and SA-6MP were applied to various cell cultures (Daudi and Hela cells, each at 30,000 cells/well) as described in Materials and Methods. The cells were stained with trypan blue to monitor the lethal effect of several concentrations of the tested conjugates as the percentage of dead cells. As shown in FIG. 3A-3D, cell death induced by 6-MP and SA-6MP was both concentration and cell type dependent. […] SA-6MP at concentrations higher than 150 μM reduced the residual viability to 75% (FIG. 3D).

Hela cells = experiment: Cell death by trypan blue dye exclusion / PI; type: cell-based, human; settings: 16 h; for sensitivity to treatment (cell death, words): 100 μM
Method: as §1, §2

MDR HT-29 cells [2] = experiment: Cell death by trypan blue dye exclusion / PI; type: cell-based, human; settings: 16 h; for sensitivity to treatment (cell death, words): MDR HT-29, 100 μM
Method: as §1, §2

Daudi cells = experiment: Cell death by trypan blue dye exclusion / PI; type: cell-based; settings: 16 h
Method: as §1, §2

MDR HT-29 cells [3] = experiment: Cell death assessment by PI staining, phase-contrast and fluorescence microscopy; type: cell-based, human; settings: MDR HT-29, 150 μM, 16 h
Method: as §1
In order to determine the toxic effect of 6-MP and SA-6MP on multidrug resistant cell lines, MDR HT-29 cells were treated for 16 h with 150 μM of either 6-MP or SA-6MP for 16 h, and were then stained with PI.

B-CLL cells [4] = experiment: Apoptosis by Annexin-Cy5 FACS analysis; type: cell-based, human; settings: 16 h
Method: Apoptosis analysis in B-CLL cells treated with 6-MP derivatives at different concentration (16 h, at 37° C.) was done by FACS analysis. B-CLL cells were incubated with FITC-CD19 anti-human antibodies (Becton Dickinson, NJ, USA) for 20 minutes at 4° C. After washing off the unbound antibodies, samples were incubated with 5 μl Annexin-Cy5 (Pharmingen, San Diego, Calif., USA) in 10 mM HEPES pH 7.4 buffer containing 140 mM NaCl and 2.5 mM CaCl2, (HBS) for 10 minutes at room temperature. Subsequently, unbound Annexin was washed out and the samples were analyzed using FACScan analyzer (Becton-Dickinson, NJ, USA). The lymphocytes were counted and gated according to their size in forward and side scatters.
The slight decrease in viability of B-CLL human peripheral blood mononuclear cells (PBMC) upon incubation in the presence of 6-MP or SA-6MP was further investigated. B-CLL cells were treated with various concentrations of either 6-MP or SA-6MP and were subjected to flow cytometry analysis, as described in Materials and Methods, in order to monitor cells undergoing apoptosis.

N87 cells = experiment: XTT cell proliferation assay; type: cell-based, human; settings: 16 h
Method: (§3) Cell proliferation was determined by the XTT viability assay in 96-well plates, based on the reduction of tetrazolium salt to soluble formazan compounds by living cells. Cells (10,000-15,000 cells/well) were seeded in a 96-well plate. After 16 h incubation with various concentrations of 6-MP, 6-MPR and their S-allylthio-derivatives, 50 μl of XTT/PMS mixture (50 μM PMS, 0.1% XTT in medium) was added onto the cells. After an incubation period of 3-4 h at 37° C. the absorbance of the samples was measured in an ELISA Reader at 450 nm. SDS (1%, 10 μl/well) was added to reference wells before adding the XTT/PMS solution.
The inhibitory effects of the various prodrugs on Daudi leukemia cell and on monolayer N87 cells were compared. […] XTT was added to the wells for 3 h at 37° C. Cell viability was monitored using an ELISA reader at 450 nm, as described in Materials and Methods.

Hela = experiment: Anti-proliferative concentration IC50 (Table 2); type: cell-based, human; settings: Homo sapiens, 16 h, tested at 0-200 μM, read-out: Anti-proferative concentration - IC50 (mean ± SE)
Method: as §3
(§4) The results of viability and proliferation were expressed as mean values±SD (n=3-6). For each cell line, the results were analyzed using two-way analysis of variance (ANOVA) followed by Bonferroni's posttest for the factors of the drugs used and their various concentrations, considering p<0.05 as significant. IC50 values (mean±SEM) were obtained from the linear range of the viability curve versus drug concentration (XTT assay).
(§5) In particular, cell in suspension, namely, Daudi, HL-60, U937, Molt-4, Jurkat and B-CLL, were tested at prodrug concentration of 0-100 μM, and monolayer cells, namely, Hela HtTA-1, MDR HT-29 and N87, were tested at prodrug concentration of 0-200 μM. in both cases, cell viability was determined by trypan blue dye exclusion assay. Data are presented in Table 2 hereinbelow for 6MP derivatives-treated for 16 h.

Jurkat = experiment: Anti-proliferative concentration IC50 (Table 2); type: cell-based, human; settings: Homo sapiens, 16 h, tested at 0-100 μM, read-out: Anti-proferative concentration - IC50 (mean ± SE)
Method: as §3, §4, §5

MDR HT-29 = experiment: Anti-proliferative concentration IC50 (Table 2); type: cell-based, human; settings: Homo sapiens; MDR HT-29, 16 h, tested at 0-200 μM; read-out: Anti-proferative concentration - IC50 (mean ± SE)
Method: as §3, §4, §5

U937 = experiment: Anti-proliferative concentration IC50 (Table 2); type: cell-based, human; settings: Homo sapiens, U-937; U937, 16 h, tested at 0-100 μM; read-out: Anti-proferative concentration - IC50 (mean ± SE)
Method: as §3, §4, §5

[5] = Nonactive 6-MP dimers in the medium of treated cell lines
Text: The fact that only a fraction of the thiopurine molecules occurs in its active form explains the need for a high prodrug concentration. The allylthio moiety of the new derivative protects the free SH from such oxidation. Only later, upon entry to the cellular reducing environment is the mixed disulfide SA-6MP cleaved, which renders higher efficiency at lower concentrations. The proposed mechanism for the reaction of SA-6MP with free thiols in the cell is depicted in Scheme 2 hereinafter.

Row | Compound | sensitivity to treatment (cell death, words) (Hela cells) | sensitivity to treatment (cell death, words) (MDR HT-29 cells [2]) | epithelial-like growth / cell death (MDR HT-29 cells [3]) | IC50 (Hela) | IC50 (Jurkat) | IC50 (MDR HT-29) | IC50 (U937) | nonactive 6-MP dimers (purine-S-S-purine) in the medium [5] | further results
1 | Sc1ncnc2nc[nH]c12 [6-MP, 6-Mercaptopurine, reference compound] | almost non-sensitive | almost non-sensitive | no inhibition was observed | > 200 µM | > 200 µM | > 200 µM | > 200 µM | dimers were indeed found in the medium | sensitivity to treatment (B-CLL cells [1]; 100-200 μM): almost insensitive; viability at 200 µM (Hela cells; Homo sapiens, 200 μM): 75%; effect on cell viability (Daudi cells; concentrations higher than 100 μM): no significant effect on cell viability; percent of apoptotic cells (B-CLL cells [4]; 0-150 μM): no significant increase in the percent of apoptotic cells; cell proliferation (N87 cells; N87, 0-100 μM): no significant loss of cell proliferation; proliferation (residual) (N87 cells; N87, 150 μM): ~80%
2 | C=CCSSc1ncnc2nc[nH]c12 [SA-6MP, S-allylthio-6-mercaptopurine] | almost non-sensitive | almost non-sensitive | epithelial-like growth was inhibited | 114 ± 12 µM | 54.7 ± 6.3 µM | 126 ± 19.1 µM | 46.7 ± 4.8 µM | not in the medium | residual viability (B-CLL cells [1]; concentrations higher than 150 μM): 75%; viability at 150 µM (Hela cells; Homo sapiens, 150 μM, read-out: viability compared to non-treated cells): 65%; viability at 150 µM (MDR HT-29 cells [2]; Homo sapiens, MDR HT-29, 150 μM, read-out: viability compared to non-treated cells): 40%; viability at 50 µM (Daudi cells; Homo sapiens, 50 μM, read-out: residual viability): ~20%; percent of apoptotic cells (B-CLL cells [4]; 50 μM): 38%; percent of apoptotic cells (B-CLL cells [4]; 100 μM): 95%; viability at 50 µM (N87 cells; Homo sapiens, N87, 50 μM, read-out: residual proliferation / viability): 50 to 60%
